Measured values taken from patent publication US11300568B2, “Methods for the diagnosis and treatment of gastrointestinal stromal tumors” (INSERM (INSTITUT NATIONAL DE LA SANTE ET DE LA RECHERCHE …, priority 2016, dated 2022).
Structures can show the parent of a compound that is named as a salt.

Key:
GIST = conditions: after 5 years; increased from 30% after 1 year; cited from earlier work
[1] = test system: LIX1 transcript levels in GIST882 cells; assay: LIX1 expression by RT-qPCR in GIST882 cells; format: cell-based, human; conditions: 1 μM, 6 h, 24 h and 48 h, vs DMSO control
Experimental: FIG. 1: LIX1 is expressed in GISTs. (A) LIX1 mRNA expression and regulation in the GIST882 cell line. (a) Semi-quantitative RT-PCR analysis of LIX1 transcript level in 131N1 (astrocytoma cells), PC3 (prostate cancer cells), HeLa, and GIST882 cells. Loading was verified by glyceraldehyde-3-phosphate dehydrogenase (GAPDH) expression. (b) Analysis of LIX1 expression by RT-qPCR in GIST882 cells upon incubation with DMSO alone (control) or with 7.5 μM of Akti (inhibitor of AKT) for 6 h, 24 h and 48 h. Normalized expression levels were converted to fold changes. *P<0.05; **P<0.01. (c) Analysis of LIX1 expression by RT-qPCR in GIST882 cells upon incubation with DMSO alone (control) or with 1 μM of imatinib mesylate (KIT inhibitor) for 6 h, 24 h and 48 h. […] (b) Relapse-free survival from initial imatinib mesylate treatment in group 1 presenting low level of LIX1 compared with group 2 presenting high level of LIX1 individuals with GIST, assessed in a univariate analysis using the Kaplan-Meier method. […]
Total RNA was extracted from stomachs or cell cultures with the HighPure RNA Isolation kit (Roche). […] Each sample was analysed in three independent experiments done in triplicate. Expression levels were determined with the LightCycler analysis software (version 3.5) relative to standard curves. […] Relative mRNA expression was calculated using the 2^−ΔΔCT method. […]

[2] = test system: LIX1 expression in GIST-T1 cells; assay: LIX1 expression by RT-qPCR in GIST-T1 cells; format: cell-based, human; conditions: 0.5 μM, 6 h, 24 h and 48 h, vs DMSO control
Experimental: Analysis of LIX1 expression by RT-qPCR in GIST-T1 cells upon incubation with DMSO alone (control) or with 0.5 μM of imatinib mesylate (KIT inhibitor) for 6 h, 24 h and 48 h. Normalized expression levels were converted to fold changes. **P<0.01; ***P<0.001.
Resistance to tyrosine kinase inhibitors such as imatinib is increasing in GISTs and complete remissions are rare, highlighting the necessity to identify additional therapeutic targets. The inventors investigated the role of LIX1 in secondary imatinib-resistant GISTs using GIST-T1 cells, a primary gastric GIST cell line sensitive to Imatinib treatment that harbors hetereygous deletion in KIT gene with constitutive KIT signaling pathway.

[3] = test system: YAP1 activity (YAP-TEAD interaction); assay: RT-qPCR of YAP1 and its targets CTGF and CYR61 in LIX1-expressing DF-1 cells; format: cell-based, chicken; conditions: low density, 1 μM for 20 hours
Experimental: (§1) The chicken DF-1 fibroblast cell line was cultured as previously described. Cell growth in DF-1 cultures was assessed using the Muse Count and Viability reagent following the manufacturer's specifications (Muse Cell Analyzer-Millipore). DF-1 cells were plated on plastic at 2000 cells/cm^2 to obtain low-density cultures and 6000 cells/cm^2 to obtain high-density cultures. Verteporfin (Sellekchem) was used applied to DF-1 cells for 20 hours at a final concentration of 1 μM.
Total RNA was extracted from stomachs or cell cultures with the HighPure RNA Isolation kit (Roche). Reverse transcription was performed using the Verso cDNA synthesis kit (Thermo Scientific) and RT-qPCR was performed using LightCycler technology (Roche Diagnostics). PCR primers were designed using the LightCycler Probe Design 2.0 software. Each sample was analysed in three independent experiments done in triplicate. Expression levels were determined with the LightCycler analysis software (version 3.5) relative to standard curves. Data were represented as the mean level of gene expression relative to the expression of the reference genes UBIQUITIN or GAPDH. Relative mRNA expression was calculated using the 2^−ΔΔCT method.
DF-1 chicken fibroblasts were infected with replication-competent RCAS retroviruses and cultured for 5 days to ensure homogeneous expression. […]

[4] = test system: DF-1 fibroblast cell line; assay: Cell proliferation of LIX1-expressing DF-1 cultures (Muse Count and Viability); format: cell-based, chicken; conditions: LIX1-expressing DF-1 cells, low density, 1 μM for 20 hours
Experimental: as §1
(§2) DF-1 chicken fibroblasts were infected with replication-competent RCAS retroviruses and cultured for 5 days to ensure homogeneous expression. […] This greater expression was associated with higher transcript levels of YAP1 pro-proliferation target genes CTGF and CYR61 and an increase in cell proliferation. […] After 3 days in culture, LIX1-expressing cells had grown faster than control cells. However, although YAP1 expression in LIX1-expressing cells remained higher than in controls, the levels of CTGF and CYR61 transcripts were similar to control levels.

[5] = test system: DF-1 fibroblast cell line; assay: Analysis of cell death in DF-1 cultures; format: cell-based, chicken; conditions: 1 μM for 20 hours
Experimental: as §1, §2

| Compound | GIST patient survival (GIST) | LIX1 transcript levels [1] | LIX1 expression [2] | YAP1 expression [3] | levels of CTGF and CYR61 transcripts [3] | rates of proliferation [4] | cytotoxic effect (cell death) [5] |
| --- | --- | --- | --- | --- | --- | --- | --- |
| Cc1ccc(NC(=O)c2ccc(CN3CCN(C)CC3)cc2)cc1Nc1nccc(-c2cccnc2)n1 [imatinib mesylate] | 50% | strong and efficient inhibition of LIX1 transcript levels | upregulated |  |  |  |  |
| verteporfin |  |  |  | upregulation of YAP1 was still observed | comparable with control cells | comparable with control cells | not due to a cytotoxic effect |
